Measured values taken from ChEMBL document CHEMBL3243984, “Methotrexate analogues. 11. Unambiguous chemical synthesis and in vitro biological evaluation of alpha- and gamma-monoesters as potential prodrugs” (J Med Chem, 1978).
One block for each compound: values may come before it.

What was measured:
[1] = system: CCRF-CEM; assay: Growth inhibition of human CCRF-CEM cells; type: functional
[2] = system: Serum; assay: Drug metabolism in mouse serum assessed as parent compound level at 0.006 g after 2 hrs by TLC analysis; type: ADME, cell-free
[3] = system: Serum; assay: Drug metabolism in human serum assessed as MTX gamma-monobutyl ester level at 150 mg after 72 hrs by HPLC analysis; type: ADME, cell-free
[4] = system: Serum; assay: Drug metabolism in rat serum assessed as DBMTX level at 0.006 g after 48 hrs by TLC analysis; type: ADME, cell-free
[5] = system: Serum; assay: Drug metabolism in rat serum assessed as parent compound level at 0.006 g after 24 hrs by TLC analysis; type: ADME, cell-free
[6] = system: Serum; assay: Drug metabolism in human serum assessed as MTX alpha-monobutyl ester level at 150 mg after 72 hrs by HPLC analysis; type: ADME, cell-free
[7] = Drug metabolism in human serum assessed as parent compound level at 0.006 g after 6 hrs by TLC analysis; type: ADME, cell-free; conditions: read-out: Drug metabolism
[8] = Drug metabolism in monkey serum assessed as parent compound level at 0.006 g after 6 hrs by TLC analysis; type: ADME, cell-free, Macaca mulatta; conditions: rhesus monkey, read-out: Drug metabolism
[9] = system: Serum; assay: Drug metabolism in mouse serum assessed as parent compound level at 0.006 g after 6 hrs by TLC analysis; type: ADME, cell-free
[10] = Drug metabolism in monkey serum assessed as parent compound level at 0.006 g after 2 hrs by TLC analysis; type: ADME, cell-free, Macaca mulatta; conditions: rhesus monkey, read-out: Drug metabolism
[11] = Drug metabolism in monkey serum assessed as parent compound level at 0.006 g after 48 hrs by TLC analysis; type: ADME, cell-free, Macaca mulatta; conditions: rhesus monkey, read-out: Drug metabolism
[12] = Drug metabolism in mouse serum assessed as parent compound level at 0.006 g after 48 hrs by TLC analysis; type: ADME, cell-free; conditions: read-out: Drug metabolism
[13] = system: Serum; assay: Drug metabolism in rat serum assessed as parent compound level at 0.006 g after 48 hrs by TLC analysis; type: ADME, cell-free
[14] = system: Serum; assay: Drug metabolism in rat serum assessed as DBMTX level at 0.006 g after 24 hrs by TLC analysis; type: ADME, cell-free
[15] = system: Serum; assay: Drug metabolism in rat serum assessed as MBMTX level at 0.006 g after 48 hrs by TLC analysis; type: ADME, cell-free
[16] = Drug metabolism in human serum assessed as parent compound level at 0.006 g after 48 hrs by TLC analysis; type: ADME, cell-free; conditions: read-out: Drug metabolism
[17] = Drug metabolism in human serum assessed as parent compound level at 0.006 g after 2 hrs by TLC analysis; type: ADME, cell-free; conditions: read-out: Drug metabolism
[18] = system: Serum; assay: Drug metabolism in rat serum assessed as DBMTX level at 0.006 g after 2 hrs by TLC analysis; type: ADME, cell-free
[19] = system: Serum; assay: Drug metabolism in rat serum assessed as parent compound level at 0.006 g after 6 hrs by TLC analysis; type: ADME, cell-free
[20] = Drug metabolism in monkey serum assessed as parent compound level at 0.006 g after 24 hrs by TLC analysis; type: ADME, cell-free, Macaca mulatta; conditions: rhesus monkey, read-out: Drug metabolism
[21] = system: Serum; assay: Drug metabolism in rat serum assessed as DBMTX level at 0.006 g after 6 hrs by TLC analysis; type: ADME, cell-free
[22] = system: Serum; assay: Drug metabolism in rat serum assessed as parent compound level at 0.006 g after 2 hrs by TLC analysis; type: ADME, cell-free
[23] = system: Serum; assay: Drug metabolism in rat serum assessed as MBMTX level at 0.006 g after 2 hrs by TLC analysis; type: ADME, cell-free
[24] = Drug metabolism in human serum assessed as parent compound level at 0.006 g after 24 hrs by TLC analysis; type: ADME, cell-free; conditions: read-out: Drug metabolism
[25] = system: Serum; assay: Drug metabolism in rat serum assessed as MBMTX level at 0.006 g after 24 hrs by TLC analysis; type: ADME, cell-free
[26] = Drug metabolism in mouse serum assessed as parent compound level at 0.006 g after 24 hrs by TLC analysis; type: ADME, cell-free; conditions: read-out: Drug metabolism
[27] = system: Serum; assay: Drug metabolism in rat serum assessed as MBMTX level at 0.006 g after 6 hrs by TLC analysis; type: ADME, cell-free
[28] = biological target: T1, Dihydrofolate reductase (Oryctolagus cuniculus) (UniProt C1JLF0); assay: Inhibition of rabbit liver dihydrofolate reductase using [3H]-folic acid after 10 mins by scintillation counting
T1 sequence (whole entry): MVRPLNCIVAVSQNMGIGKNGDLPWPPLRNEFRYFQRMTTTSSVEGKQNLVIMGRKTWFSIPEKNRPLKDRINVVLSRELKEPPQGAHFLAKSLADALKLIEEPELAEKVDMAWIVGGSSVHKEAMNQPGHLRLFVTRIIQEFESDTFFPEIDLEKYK

[29] = system: Serum; assay: Retention time in human serum at 150 mg after 72 hrs by HPLC analysis; type: ADME, cell-free

Structure (SMILES): COC(=O)CC[C@H](NC(=O)c1ccc(N(C)Cc2cnc3nc(N)nc(N)c3n2)cc1)C(=O)OC
ID50 [1]: 0.4 ×10⁻⁶ mol/L

Structure (SMILES): CCOC(=O)[C@H](CCC(=O)O)NC(=O)c1ccc(N(C)Cc2cnc3nc(N)nc(N)c3n2)cc1
ID50 [1]: 6.2 ×10⁻⁶ mol/L

Drug metabolism [2]: 43%
Drug metabolism [3]: metabolite_detected
Drug metabolism [4]: metabolite_detected
Drug metabolism [5]: metabolite_detected
Drug metabolism [6]: metabolite_detected
remaining at 6 h [7]: < 1%
remaining at 6 h [8]: < 1%
Drug metabolism [9]: 46%
remaining at 2 h [10]: < 1%
remaining at 48 h [11]: 2%
remaining at 48 h [12]: 93%
Drug metabolism [13]: metabolite_detected
Drug metabolism [14]: metabolite_detected
Drug metabolism [15]: metabolite_detected
remaining at 48 h [16]: < 1%
remaining at 2 h [17]: < 1%
Drug metabolism [18]: metabolite_detected
Drug metabolism [19]: metabolite_detected
remaining at 24 h [20]: < 1%
Drug metabolism [21]: metabolite_detected
Drug metabolism [22]: metabolite_detected
Drug metabolism [23]: metabolite_detected
remaining at 24 h [24]: 1%
Drug metabolism [25]: metabolite_detected
remaining at 24 h [26]: 89%
Drug metabolism [27]: metabolite_detected
ID50 [28]: 1.4 ×10⁻⁷ mol/L
Structure (SMILES): CCCCOC(=O)CC[C@H](NC(=O)c1ccc(N(C)Cc2cnc3nc(N)nc(N)c3n2)cc1)C(=O)OCCCC
ID50 [1]: 0.057 ×10⁻⁶ mol/L

Structure (SMILES): COC(=O)CC[C@H](NC(=O)c1ccc(N(C)Cc2cnc3nc(N)nc(N)c3n2)cc1)C(=O)O
ID50 [1]: 0.43 ×10⁻⁶ mol/L

Retention_time [29]: 2 min
ID50 [28]: 9 ×10⁻⁹ mol/L
Structure (SMILES): CN(Cc1cnc2nc(N)nc(N)c2n1)c1ccc(C(=O)N[C@@H](CCC(=O)O)C(=O)O)cc1 [METHOTREXATE]
ID50 [1]: 0.006 ×10⁻⁶ mol/L

Structure (SMILES): CCOC(=O)CC[C@H](NC(=O)c1ccc(N(C)Cc2cnc3nc(N)nc(N)c3n2)cc1)C(=O)O
ID50 [1]: 0.58 ×10⁻⁶ mol/L

Retention_time [29]: 3.2 min
ID50 [28]: 1.7 ×10⁻⁸ mol/L
Structure (SMILES): CCCCOC(=O)CC[C@H](NC(=O)c1ccc(N(C)Cc2cnc3nc(N)nc(N)c3n2)cc1)C(=O)O
ID50 [1]: 0.76 ×10⁻⁶ mol/L

Retention_time [29]: 5.1 min
ID50 [28]: 1.7 ×10⁻⁸ mol/L
Structure (SMILES): CCCCOC(=O)[C@H](CCC(=O)O)NC(=O)c1ccc(N(C)Cc2cnc3nc(N)nc(N)c3n2)cc1
ID50 [1]: 2 ×10⁻⁶ mol/L

Structure (SMILES): CCOC(=O)CC[C@H](NC(=O)c1ccc(N(C)Cc2cnc3nc(N)nc(N)c3n2)cc1)C(=O)OCC
ID50 [1]: 0.012 ×10⁻⁶ mol/L
